Legend:
Experiment in all cases: relative viability (nuclei count vs DMSO), 5 days (fraction); higher = more cells survive
Alpelisib + Navitoclax = compound: Cc1nc(NC(=O)N2CCC[C@H]2C(N)=O)sc1-c1ccnc(C(C)(C)C(F)(F)F)c1 [Alpelisib] + CC1(C)CCC(c2ccc(Cl)cc2)=C(CN2CCN(c3ccc(C(=O)NS(=O)(=O)c4ccc(N[C@H](CCN5CCOCC5)CSc5ccccc5)c(S(=O)(=O)C(F)(F)F)c4)cc3)CC2)C1 [Navitoclax] (partner 0.5 µM)
Summary of the method: (§1)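 A single step with final 0.05% Triton X-100, 1% formaldehyde and 1 ug/ml Hoechst fixed the cells and stained nuclei 5 days after treatment. Lung cancer cell lines in 1536-well plates had been treated by pin tool the day after seeding with one drug alone or a fixed anchor-drug dose plus five library-drug doses (not always all listed) in √10 steps, and nuclei were counted on 4× images. Relative viability is the ratio of nuclei in treated wells to nuclei in vehicle wells, taken as the median of duplicate plates.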

OSI-027 + Vorinostat = compound: COc1cccc2cc(-c3nc([C@H]4CC[C@H](C(=O)O)CC4)n4ncnc(N)c34)[nH]c12 [OSI-027] + O=C(CCCCCCC(=O)Nc1ccccc1)NO [Vorinostat] (partner 1 µM)
Summary of the method: as §1

OSI-027 + Trametinib = compound: COc1cccc2cc(-c3nc([C@H]4CC[C@H](C(=O)O)CC4)n4ncnc(N)c34)[nH]c12 [OSI-027] + CC(=O)Nc1cccc(-n2c(=O)n(C3CC3)c(=O)c3c(Nc4ccc(I)cc4F)n(C)c(=O)c(C)c32)c1 [Trametinib] (partner 0.02 µM)
Summary of the method: as §1

OSI-027 + Pemetrexed = compound: COc1cccc2cc(-c3nc([C@H]4CC[C@H](C(=O)O)CC4)n4ncnc(N)c34)[nH]c12 [OSI-027] + Nc1nc2[nH]cc(CCc3ccc(C(=O)N[C@@H](CCC(=O)O)C(=O)O)cc3)c2c(=O)[nH]1 [Pemetrexed] (partner 0.2 µM)
Summary of the method: as §1

UMC-11
relative viability (Alpelisib + Navitoclax; first compound 0.04 µM): 0.319
relative viability (Alpelisib + Navitoclax; first compound 0.1265 µM): 0.341
relative viability (Alpelisib + Navitoclax; first compound 0.4 µM): 0.336
relative viability (Alpelisib + Navitoclax; first compound 1.265 µM): 0.325
relative viability (Alpelisib + Navitoclax; first compound 4 µM): 0.273
relative viability (OSI-027 + Vorinostat; first compound 0.01 µM): 0.379
relative viability (OSI-027 + Vorinostat; first compound 0.03162 µM): 0.371
relative viability (OSI-027 + Vorinostat; first compound 0.1 µM): 0.376
relative viability (OSI-027 + Vorinostat; first compound 0.3162 µM): 0.348
relative viability (OSI-027 + Vorinostat; first compound 1 µM): 0.275
relative viability (OSI-027 + Trametinib; first compound 0.01 µM): 0.727
relative viability (OSI-027 + Trametinib; first compound 0.03162 µM): 0.772
relative viability (OSI-027 + Trametinib; first compound 0.1 µM): 0.579
relative viability (OSI-027 + Trametinib; first compound 0.3162 µM): 0.472
relative viability (OSI-027 + Trametinib; first compound 1 µM): 0.392
relative viability (OSI-027 + Pemetrexed; first compound 0.01 µM): 0.994
relative viability (OSI-027 + Pemetrexed; first compound 0.03162 µM): 0.77
relative viability (OSI-027 + Pemetrexed; first compound 0.1 µM): 0.658
relative viability (OSI-027 + Pemetrexed; first compound 0.3162 µM): 0.585
relative viability (OSI-027 + Pemetrexed; first compound 1 µM): 0.444
